Our source for the EC50 and AC50 values is ChEMBL document CHEMBL1201862, “PubChem BioAssay data set” (2004).

Activity calls are given as the source filed them. For most assays here, no stated cut-off is given here; in the data, actives have a measured EC50 and inactives only a lower limit.

The nature of test [1]: Trypanosoma cruzi growth suppression in host cells – NIH3T3 host cells, beta-gal luminescence, confirmation (AID 2044).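 Further: intracellular parasites grown in NIH/3T3 mouse fibroblasts as host cells; luminescent beta-galactosidase reporter signal from transgenic T. cruzi replicating inside host cells; inhibitors lower the luminescence signal.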 The format is functional, cell-based.
A short description of test [2]: NIH3T3 cell viability loss – ATP luminescence, mouse fibroblasts, counter-screen, dose response (AID 2010).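 Further: cells exposed to compound for about 90 hours before reading.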 It counts as functional, cell-based. For orientation: Counterscreens check selectivity or assay interference.
The nature of test [3]: Luminescence Cell-Based Dose Response HTS to Identify Activators of Luciferase Translation or Activity in H4 […] Cells. [Related pubchem assays: 1829 (Project Summary), 1814 (Primary HTS)]. The format is functional.
Test [4] can be described thus: Luminescence Cell-Based Dose Confirmation HTS to Identify Activators of 5'UTR Stem-Loop Driven Alpha-Synuclein mRNA Translation in H4 Neuroglioblastoma Cells. [Related pubchem assays: 1829 (Project Summary), 1814 (Primary HTS)]. It counts as functional.
For another test, the system named is H4. The test can be described thus: Luminescence Cell-Based Dose Response HTS to Identify Activators of 5'UTR Stem-Loop Driven Prion Protein mRNA Translation in H4 Neuroglioblastoma Cells. [Related pubchem assays: 1829 (Project Summary), 1814 (Primary HTS)]. The format is functional. The note with it: Homo sapiens.
The target of a further test is T1, Cytochrome P450 1A2 (Homo sapiens, UniProt P05177).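 Further: PubChem cytochrome P450 panel assay, CYP1A2 panel member.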
T1 sequence (P05177 whole entry): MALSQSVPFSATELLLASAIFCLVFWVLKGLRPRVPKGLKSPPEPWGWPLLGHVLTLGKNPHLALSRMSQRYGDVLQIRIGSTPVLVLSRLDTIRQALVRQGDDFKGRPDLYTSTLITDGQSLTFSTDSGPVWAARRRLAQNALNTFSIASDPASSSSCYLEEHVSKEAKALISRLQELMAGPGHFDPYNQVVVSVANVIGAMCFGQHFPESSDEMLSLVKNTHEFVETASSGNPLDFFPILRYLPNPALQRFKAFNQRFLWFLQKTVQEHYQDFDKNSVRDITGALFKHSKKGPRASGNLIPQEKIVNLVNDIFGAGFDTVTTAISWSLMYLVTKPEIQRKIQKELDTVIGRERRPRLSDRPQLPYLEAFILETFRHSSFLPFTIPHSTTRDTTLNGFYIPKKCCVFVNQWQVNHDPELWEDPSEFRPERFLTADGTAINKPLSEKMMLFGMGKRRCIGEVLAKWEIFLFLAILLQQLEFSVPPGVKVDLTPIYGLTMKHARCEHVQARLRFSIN

For test [5], the target named is T2, Heat shock factor protein 1 (Mus musculus, UniProt P38532).
T2 sequence (P38532 whole entry): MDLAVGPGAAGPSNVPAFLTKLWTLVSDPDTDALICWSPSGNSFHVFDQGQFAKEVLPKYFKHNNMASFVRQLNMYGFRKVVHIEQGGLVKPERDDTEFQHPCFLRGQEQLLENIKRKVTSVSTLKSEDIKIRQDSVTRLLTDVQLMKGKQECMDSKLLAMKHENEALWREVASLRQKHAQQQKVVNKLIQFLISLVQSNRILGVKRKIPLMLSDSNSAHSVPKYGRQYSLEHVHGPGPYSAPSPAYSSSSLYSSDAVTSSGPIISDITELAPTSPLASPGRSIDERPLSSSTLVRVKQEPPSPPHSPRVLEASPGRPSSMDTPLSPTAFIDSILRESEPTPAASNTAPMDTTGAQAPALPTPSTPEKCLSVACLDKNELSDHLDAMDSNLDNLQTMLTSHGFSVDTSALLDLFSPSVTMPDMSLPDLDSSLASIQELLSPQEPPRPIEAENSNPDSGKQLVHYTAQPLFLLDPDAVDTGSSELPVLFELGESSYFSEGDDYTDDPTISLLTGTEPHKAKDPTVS
The test can be described thus: decrease of HSF1-responsive luciferase luminescence – cell-based, NIH3T3, dose retest, confirmation (AID 2382).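 Further: NIH3T3 fibroblasts with HSF1-driven luciferase reporter stressed by proteasome inhibitor MG132; luminescence from HSF1-driven luciferase expression after 8 hours of MG132 stress.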 The format is functional.

Consider `CC(C)Cc1nnc(NC(=O)c2cccc(S(=O)(=O)N3CCN(C)CC3)c2)s1`, for which the EC50 in test [1] was 0.1 µM (active); in test [2], > 60 µM (not active).

In the case of `c1ccc(CN2CCN(c3cnc4ccccc4n3)CC2)cc1`, the figures for the EC50 (in test [3]; in test [4]; with H4) were 26.8 µM (active), 4.79 µM (active) and 10.9 µM (active), respectively.

With `COc1ccccc1Cn1nnc2c(=O)[nH]c(C3CCN(C(=O)c4ccc(C)cc4)CC3)nc21`, the AC50 on Cytochrome P450 1A2 is 25.1 µM (inconclusive).

Take `Fc1ccc(-c2csc(/C=C/c3ccc4c(c3)OCO4)n2)cc1`: the EC50 in test [3] is 9.07 µM (active); in test [4] it was 9.2 µM (active); in the test on H4, 46.8 µM (active).

Consider `COc1ccc(-c2ccc(-c3nnn(CC(=O)N4CCOCC4)n3)cc2)cc1`, for which the half-maximal effective concentration (EC50) in test [3] was 4.67 µM (active); in test [4] it was 4.15 µM (active); in the test with H4 it was 2.65 µM (active).

With `COc1ccc(N2CCN(C(=O)CSc3ncnc4scc(-c5ccc(C)cc5)c34)CC2)cc1`, the EC50 in test [1] is 1.03 µM (active); in test [2] it was > 60 µM (not active).

On to `COC(=O)c1ccc(OCc2cc(=O)n3ccsc3n2)cc1`, for which the EC50 is > 120 µM (not active) in test [3] and 21.2 µM (active) in test [4].

For `CCN(CC)CCN1C(=O)Cn2c(C)c(C)c3cccc1c32`, the EC50 in test [1] is 0.206 µM (active); in test [2], > 60 µM (not active).

`Cc1cc(C)[n+]2n1C([O-])=C(c1ccccc1)C2=O`: the EC50 was 29.1 µM (active) in test [3] and 13.1 µM (active) with H4.

Take `O=C(/C=C/c1ccccc1)NCCC1=CCCCC1`: the values for the EC50 (in test [3]; in test [4]; in the test with H4) were 2.93 µM (active), 0.378 µM (active) and 13.1 µM (active), respectively.

Regarding `O=C(CSc1cccc2cccnc12)N1CCCC1`, the figures for the EC50 in test [1] and in test [2] were 0.299 µM (active) and 8.3 µM (active), respectively.

Regarding `O=C(CN1CCN(C2CCCCC2)CC1)NCCC1=CCCCC1`, the AC50 at Cytochrome P450 1A2 is 20 µM (inconclusive).

Take `O=C(Nc1ccccc1)[C@@H]1[C@@H]2C(=O)N(c3ccc(F)cc3)C(=O)[C@@H]2[C@H]2C=CC=NN21`: the EC50 in test [3] was > 60 µM (not active); in test [4] it was > 120 µM (not active); with H4, > 120 µM (not active).

As to `CC(C)C(=O)Nc1cccc(-c2nc3ncccc3o2)c1`, the EC50 in test [5] is recorded as > 195 µM (not active).

Take `Cc1ccccc1NC(=O)N1C2CCCC1CC(NC(=O)C1CC1)C2` (stereo not given): in test [5], the 50% effective concentration (EC50) was > 195 µM (not active).

Regarding `O=C(CCCNC(=O)/C(=C\c1ccccc1F)NC(=O)c1ccccc1)OCc1ccccc1`, the EC50 in test [5] was > 195 µM (not active).

`CCCCN(C)C(=O)CCC(=O)Nc1ccc2nc(N3CCN(C)CC3)cc(C)c2c1`: the EC50 in test [5] is > 195 µM (not active).

With `CCOC(=O)CN1CC23C=CC(O2)C(C(=O)NC2CCCCC2)C3C1=O` (stereo not given), in test [5], the EC50 was > 195 µM (not active).

For `O=C(c1ccc(Cl)cc1)N1CCCC(c2ccccc2)=N1`, on Cytochrome P450 1A2, the AC50 was 0.141 µM (inconclusive).

Take `Cc1cc(C)c(-c2nc3ccccc3s2)[nH]1`: the EC50 was 1.61 µM (active) in test [3], 0.207 µM (active) in test [4] and 30.3 µM (active) in the test with H4.

For `CC(C)(C)CC(=O)NCCc1csc(-c2ccccc2)n1`, the EC50 in test [1] was 1.1 µM (active); in test [2], > 60 µM (not active).

For the compound `O=C(Nc1ccc([N+](=O)[O-])cc1)C1(c2ccccc2)CCOCC1`, in test [5], the EC50 was > 195 µM (not active).

Regarding `O=C(CCC1CCCNC1)c1ccccc1` (stereo not given), the EC50 in test [5] is listed as > 195 µM (not active).

`COCCCNC(=O)Cn1cnc2sc(C)c(S(=O)(=O)N3CCN(c4ccccc4OC)CC3)c2c1=O`: the EC50 in test [5] was > 195 µM (not active).

As for `Cc1[nH]c2ccccc2c1C(=O)CSc1nc2cc(S(=O)(=O)N3CCCCC3)ccc2o1`, the EC50 in test [1] was 2.54 µM (active); in test [2] it was 18.2 µM (active).

As for `O=C(COc1ccc(Cl)cc1Cl)NC(=O)N1CCCCC1`, the results for the EC50 (in test [3]; in test [4]; with H4) were 30.6 µM (active), 6.03 µM (active) and 92.5 µM (active), respectively.

In the case of `COC(=O)[C@@]1(Cc2ccc(OC)cc2)[C@H]2c3cc(C(=O)N4CCCC4)n(CCc4c[nH]c5cc(F)ccc45)c3C[C@H]2CN1C(=O)c1ccccc1`, the AC50 on Cytochrome P450 1A2 was 39.8 µM (inconclusive).

In the case of `CCCS(=O)(=O)c1nc(S(=O)(=O)c2ccc(C)cc2)c(N2CCN(CCO)CC2)s1`, the EC50 is 8.79 µM (active) in test [3], 18.7 µM (active) in test [4] and > 120 µM (not active) in the test on H4.

Consider `O=C(Nc1ccn(Cc2ccccc2)n1)c1ccc2c(c1)OCO2`, for which the EC50 in test [3] was 18.5 µM (active); in test [4], 15.6 µM (active); in the test on H4 it was > 120 µM (not active).

`Fc1ccc(COc2ccc(Br)cc2CNCc2ccncc2)cc1`: the results for the EC50 in test [1] and in test [2] were 0.78 µM (active) and > 30 µM (not active), respectively.

Turning to `CCOc1ccc(CN2CCN(Cc3cccn3-c3cccnc3)CC2CCO)cc1` (stereo not given), the EC50 in test [1] is 1.89 µM (active); in test [2], > 60 µM (not active).

Take `CCOc1ccc(N/C(=C(/C(=O)C(=O)N2CCOCC2)C(=O)c2ccccc2)c2ccccc2)cc1`: the EC50 in test [3] was 20.3 µM (active); in test [4] it was 13.3 µM (active); in the test on H4, 57.8 µM (active).

In the case of `Cc1cc(N2CCN(C)CC2)nc2ccc(NC(=O)c3cccnc3Cl)cc12`, the EC50 in test [5] is > 195 µM (not active).

For `O=C(O)C(=O)Nc1ccc(NC(=O)C(c2ccccc2)c2ccccc2)cc1`, the EC50 in test [5] is > 195 µM (not active).

As to `Cc1ccc(C(=O)NCc2ccc(N3CCN(C)CC3)cc2)cc1C`, the EC50 in test [5] is on record as > 195 µM (not active).

In the case of `COc1ccc(CCN(Cc2cccs2)S(=O)(=O)c2ccc(S(=O)(=O)N(C)C3CCCCC3)cc2)cc1OC`, the results for the EC50 in test [1] and in test [2] were 0.878 µM (active) and > 60 µM (not active), respectively.

Regarding `CC(=O)NCC1=C(NC(C)=O)C2CC1C(C)(C)C2C` (stereo not given), in test [5], the EC50 is given as > 195 µM (not active).

Take `O=S(=O)(NC(=NC(=S)Nc1ccccc1)c1ccccc1)c1ccc(Cl)cc1`: the concentration for a half-maximal effect (EC50) is 59.7 µM (active) in test [3], 41.4 µM (active) in test [4] and 63.2 µM (active) with H4.

`NC(=O)C1(N2CCCCC2)CCN(C2CC(=O)NC2=O)CC1` (stereo not given): the EC50 (in test [3]; in test [4]; with H4) was > 120 µM (not active) in each case.

Regarding `O=C(/C=C/c1ccc2c(c1)OCO2)Nc1nncs1`, the figures for the EC50 (in test [3]; in the test with H4) were 0.1 µM (active) and 18.6 µM (active), respectively.

As to `COc1ccc(-c2cn3c(C)c(C(=O)NCCN4CCOCC4)sc3n2)cc1`, the half-maximal activity concentration (AC50) on Cytochrome P450 1A2 was 0.126 µM (inconclusive).

As for `C/C(CC1CC(COCC(C)C)OC1=O)=N\Nc1nc(-c2ccccc2)cs1` (stereo not given), the values for the EC50 (in test [3]; in test [4]; with H4) were > 120 µM (not active), > 120 µM (not active) and 71.2 µM (active), respectively.

As to `COc1ccccc1C(=O)NCC(=O)N/N=C/c1ccc2c(c1)OCO2`, in test [5], the EC50 is reported as > 195 µM (not active).

As to `CNC(=S)N/N=C/c1c(Cl)cccc1Cl`, in test [5], the EC50 is listed as > 195 µM (not active).

For the compound `O=C(N/N=C\c1ccc2c(c1)OCO2)c1ccc(Cn2cc(Br)c([N+](=O)[O-])n2)o1`, the EC50 in test [1] is 0.408 µM (active); in test [2] it was > 60 µM (not active).

As for `CCc1cc(/C=N/C2CCCCC2)c(O)s1`, the EC50 was > 120 µM (not active) in test [3], > 195 µM (not active) in test [5], 67.7 µM (active) in test [4] and > 120 µM (not active) with H4.

For `CC(C)(C)C1CCc2[nH]c3ccccc3c(=O)c2C1` (stereo not given), the figures for the EC50 in test [1] and in test [2] were 1.1 µM (active) and > 60 µM (not active), respectively.

As usually defined, the EC50 is the concentration that produces a half-maximal response. One may read the AC50 as the midpoint of the concentration-response curve, whichever way the signal moves.
